Measurements: patent US10065965B2, “Imidazo[1,2-B][1,2,4]triazine derivatives as antiparasitic agents” (GlaxoSmithKline Intellectual Property Development Limited, priority 2015, dated 2018)
Converted amounts (≈) assume the structure as drawn.

Assays:
Leishmania donovani = assay: Assay 1 intramacrophage Leishmania donovani assay (potency readout); format: cell-based; conditions: amastigotes in PMA-treated THP-1 macrophages, 96 h, average number of amastigotes per cell, minimum threshold 4.3, read-out: pEC50 value against Leishmania donovani (converted)
Description: (§1) The intramacrophage Leishmania assay was performed using a modified version of the method described in De Rycker et al. (Antimicrob Agents Chemother. 2013 July; 57(7):2913-22. Comparison of a high-throughput high-content intracellular Leishmania donovani assay with an axenic amastigote assay. De Rycker M, Hallyburton I, Thomas J, Campbell L, Wyllie S, Joshi D, Cameron S, Gilbert I H, Wyatt P G, Frearson J A, Fairlamb A H, Gray D W.). Procedure: 350 nl of compound was pre-dispensed into 384 well sterile intermediary plates. For single point screening, amphotericin B was added to all wells of column 24 as a positive control (final concentration 2 μM) and DMSO to column 23. For potency determinations, ten-point, one in three dilution curves were created with the highest concentration being 50 μM and on each plate a control curve of amphotericin B was included. Controls were as follows: columns 11 and 12: DMSO, columns 23 and 24: amphotericin B (final concentration 2 μM). To the intermediary plates, 35 μl of THP-1 media was added and plates were shaken for >5 min to ensure complete mixing. THP-1 cells (8,000 per well, 50 μl) were plated into black clear-bottom 384 well plates (Corning) in presence of 20 nM PMA. After 20 min at RT, the plates were incubated at 37° C. under 5% CO2 in a humidified incubator for 75 h. The cells were then washed with […] sterile phosphate buffered saline (PBS) supplemented with 1 mM CaCl2, 0.5 mM MgCl2, 0.1% (w/v) bovine serum albumin (PBS-A) and amastigotes were added to all wells at a multiplicity of infection of 5 (40,000 amastigotes per well). After 40 min at RT, plates were returned to the incubator. Amastigotes were incubated in the presence of THP-1 macrophages for 16 h. Any remaining extracellular amastigotes were subsequently removed with an overflow wash of 1 mL PBS-A per well (wash buffer is being aspirated from the top of the well as it is being dispensed) followed by addition of 25 μl of the compound pre-dilutions using a Fluidx Ipette-pro pipetting station. The final dilution of each compound was 200-fold. Plates were incubated for 96 h and then washed (250 μl PBS-A) and fixed (4% (v/v) formaldehyde-PBS, 30 min, RT). After fixation, the wells were washed with 250 μl PBS, stained (10 μg/mL DAPI, 0.4 μg mL-1 HCS Cellmask Deep Red in PBS+0.1% (v/v) Triton X-100, 30 min, RT) and washed with 250 μl PBS. Finally, PBS+0.05% (v/v) thimerosal was added to the wells, the plates were sealed and imaged on a high-content microscope (GE IN Cell 2000) using a 10× objective. Image analysis was carried out with GE IN Cell Analyzer 1000 Workstation using the “Multi Target Analysis” module. Settings for segmentation were as follows: nuclei: minimum area: 142.384 μm2, sensitivity: 81, method: top-hat; cells: characteristic area: 2500 μm2, sensitivity: 60, method: multiscale top-hat; organelles (amastigotes): granule size 1-3, 3 scales, sensitivity: 90, detection in entire cell. For each well, i) THP-1 cell count (cytotoxicity readout) and ii) average number of amastigotes per cell (potency readout) were calculated, both in terms of pEC50 values.

Trypanosoma cruzi = assay: Assay 6 Trypanosoma cruzi intracellular assay (infected H9C2 cells); format: cell-based; conditions: H9c2, in Rattus norvegicus, 72 h, infected H9C2 rat cardiomyocytes, read-out: pEC50 value against Trypanosoma cruzi (converted)
Description: Compounds were dispensed into black 384-well assay plates (Greiner) by acoustic dispensing (LabCyte ECHO). For potency determinations, eleven-point, one in three dilution curves were generated, with a top concentration of 50 μM. H9C2 rat cardiomyocytes cells were dispensed in T225 tissue culture flasks and after 4 hours they were infected during 18 hours with T. cruzi trypomastigotes in the same T225 tissue culture flasks at a multiplicity of infection of 1. Next, any remaining free trypomastigotes were washed away with PBS and the infected H9C2 cells were harvested by trypsinisation. The infected H9C2 cells were then plated into 384-well plates containing the compounds to be tested, at 2500 cells per well in DMEM media with 2% FBS, 1% Penicillin/Streptomocin, 2 mM L-Glutamine, 1 mM Na Pyruvate and 25 mM HEPES. After 72 h incubation at 37° C. in presence of 5% CO2, the plates were fixed and stained with 4% formaldehyde and 2 μM Draq5 for 3 hours at room temperature. The plates were imaged on a Perkin Elmer Opera high-content imaging system using a 20× air objective. Images were analysed using the Acapella building blocks system (Perkin Elmer). The image analysis algorithm first identified the H9C2 nuclei followed by demarcation of the cytoplasm and identification of intracellular amastigotes. This algorithm reported mean number of parasites per H9C2 cell, the percentage of infected H9C2 cells and the total number of H9C2 cells.

[1] = Assay 4 solubility assay, ChemiLuminescent Nitrogen Detection (CLND); format: physicochemical; conditions: phosphate buffered saline, pH 7.4, aqueous buffer, kinetic from dmso stock, pH 7.4 PBS, from 10 mM DMSO stock, 1 h at room temperature
Description: A 10 mM DMSO stock solution of the compound was prepared. Solvents and Buffers Organic solvents of HPLC grade were used. Ultra pure water (Milli-Q grade) was used. Buffers were prepared with ultra pure water and filtered using 0.45μ cameo filters. Aqueous Buffer Solution: Phosphate Buffer Saline (PBS) @ pH 7.4 was prepared from Sigma dry powder packs, P-3813. Each one was diluted to 1 liter with deionised water. The pH was checked before the solution was used II. Procedures. • a) DMSO concentration was measured. DMSO blanks and ondansetron and caffeine standards were added to the plate (column 12, A, B, C, & D for the blanks and E, F, G, & H for the standards). Plates were covered with foil. When the UV and CLND detectors baselines appeared to be stable, the CLND was zeroed. • b) Once DMSO concentration measurements were complete, a filtration plate was prepared from each parent plate by diluting 5 μl of the 10 mM DMSO stock solution to […] with pH7.4 PBS. • c) After the plates were prepared, they were covered with a plate lid and left to incubate for 1 h at room temperature. • d) Sample was filtered using MILLIPORE MultiScreen Solubility (MSSLBPC10) Filtration Plates, to NUNC V well plates. The filter plate was removed and the NUNC plate was sealed with a power seal plate seal. • e) HPLC/CLND instruments were set up and left to equilibrate. Mobile phases (MeOH:H2O 1:1, flow rate: 0.2 ml/min, sensitivity z10, Gain High). The samples were run. • f) The assay curve fit was done by linear regression and solubility values were reported in μM.

[2] = Assay 1 intramacrophage Leishmania donovani assay, THP-1 cell count (cytotoxicity readout); format: cell-based; conditions: human, minimum threshold 4.3, read-out: cytotoxicity against THP-1 cells, pEC50 value (converted)
Description: as §1

EC50 (Leishmania donovani)	solubility at 1 h [1]	SMILES	EC50 (Trypanosoma cruzi)	EC50 at 96 h [2]
	10 to 83 µM (≈ 4.77 to 39.6 µg/mL)	COCCOc1ccccc1-c1cnc2nc(-c3cc(NC(=O)N4CCCC4)ccc3F)cn2n1 [Example 29, N-(4-fluoro-3-(2-(2-(2-methoxyethoxy)phenyl)imidazo[1,2-b][1,2,4]triazin-6-yl)phenyl) pyrrolidine-1-carboxamide]	5.01 to 631 nM	
	1 to 6 µM (≈ 0.532 to 3.19 µg/mL)	O=C(Nc1ccc(F)c(-c2cn3nc(-c4ccc(OCCN5CCOCC5)cc4)cnc3n2)c1)N1CCCC1 [Example 17, N-(4-fluoro-3-(2-(4-(2-morpholinoethoxy)phenyl)imidazo[1,2-b][1,2,4]triazin-6-yl)phenyl) pyrrolidine-1-carboxamide]	5.01 to 631 nM	
	10 to 83 µM (≈ 3.66 to 30.4 µg/mL)	C=C(C)c1cnc2nc(-c3cc(NC(=O)N4CCCC4)ccc3F)cn2n1 [Example 14, N-(4-fluoro-3-(2-(prop-1-en-2-yl)imidazo [1,2-b][1,2,4]triazin-6-yl)phenyl)pyrrolidine-1-carboxamide]	5.01 to 631 nM	
	10 to 83 µM (≈ 4.32 to 35.9 µg/mL)	COc1ccccc1-c1cnc2nc(-c3cc(NC(=O)N4CCCC4)ccc3F)cn2n1 [Example 30, N-(4-fluoro-3-(2-(2-methoxyphenyl)imidazo [1,2-b][1,2,4]triazin-6-yl)phenyl)pyrrolidine-1-carboxamide]	5.01 to 631 nM	
	10 to 83 µM (≈ 3.82 to 31.7 µg/mL)	CC(C)Cc1cnc2nc(-c3cc(NC(=O)N4CCCC4)ccc3F)cn2n1 [Example 36, N-(4-fluoro-3-(2-isobutyl-imidazo[1,2-b][1,2,4]triazin-6-yl)phenyl) pyrrolidine-1-carboxamide]	5.01 to 631 nM	
	100 to 416 µM (≈ 40.7 to 170 µg/mL)	Cc1c(-c2cccc(NC(=O)N3CCCC3)c2)nc2ncc(N3CCOCC3)nn12 [Example 28, N-(3-(7-methyl-2-morpholinoimidazo [1,2-b][1,2,4]triazin-6-yl)phenyl)pyrrolidine-1-carboxamide]	5.01 to 631 nM	

The remaining lines, values behind:

SMILES	EC50 (Leishmania donovani)	solubility at 1 h [1]	EC50 (Trypanosoma cruzi)	EC50 at 96 h [2]
CCOC(=O)Nc1ccc(F)c(-c2cn3nc(N4CCOCC4)cnc3n2)c1 [Example 52, ethyl (4-fluoro-3-(2-morpholinoimidazo [1,2-b][1,2,4]triazin-6-yl)phenyl)carbamate]	> 50100 nM		5.01 to 631 nM	
O=C(Nc1ccc(F)c(-c2cn3nc(C4=CCOCC4)cnc3n2)c1)N1CCCC1 [Example 12, N-(3-(2-(3,6-dihydro-2H-pyran-4-yl)imidazo[1,2-b] [1,2,4]triazin-6-yl)-4-fluorophenyl)pyrrolidine-1-carboxamide]		10 to 83 µM (≈ 4.08 to 33.9 µg/mL)	5.01 to 631 nM	
O=C(Nc1cnc2nc(-c3cc(NC(=O)N4CCCC4)ccc3F)cn2n1)C1CC1 [Example 58, N-(3-(2-(cyclopropane-carboxamido)imidazo [1,2-b][1,2,4]triazin-6-yl)-4-fluorophenyl) pyrrolidine-1-carboxamide]		10 to 83 µM (≈ 4.09 to 34 µg/mL)	5.01 to 631 nM	
O=C(Nc1ccc(F)c(-c2cn3nc(C4CCOCC4)cnc3n2)c1)N1CCCC1 [Example 15, N-(4-fluoro-3-(2-(tetrahydro-2H-pyran-4-yl)imidazo[1,2-b] [1,2,4]triazin-6-yl)phenyl)pyrrolidine-1-carboxamide]		100 to 416 µM (≈ 41 to 171 µg/mL)	5.01 to 631 nM	
O=C(Nc1ccc(F)c(-c2cn3nc(-c4ccc(O)cc4)cnc3n2)c1)N1CCCC1 [Example 51, N-(4-fluoro-3-(2-(4-hydroxyphenyl)imidazo [1,2-b][1,2,4]triazin-6-yl)phenyl)pyrrolidine-1-carboxamide]			5.01 to 631 nM	3980 to 15800 nM
O=C(Nc1ccc(Cl)c(-c2cn3nc(N4CCOCC4)cnc3n2)c1)N1CCCC1 [Example 43, N-(4-chloro-3-(2-morpholinoimidazo[1,2-b][1,2,4]triazin-6-yl)phenyl)pyrrolidine-1-carboxamide]		10 to 83 µM (≈ 4.28 to 35.5 µg/mL)	5.01 to 631 nM	
O=C(Nc1ccc(F)c(-c2nc3ncc(N4CCOCC4)nn3c2F)c1)N1CCCC1 [Example 40, N-(4-fluoro-3-(7-fluoro-2-morpholinoimidazo [1,2-b][1,2,4]triazin-6-yl)phenyl)pyrrolidine-1-carboxamide]		100 to 416 µM (≈ 42.9 to 179 µg/mL)	5.01 to 631 nM	
O=C(Nc1ccc(F)c(-c2cn3nc(N4CCOCC4)cnc3n2)c1)N1CCC1 [Example 42, N-(4-fluoro-3-(2-morpholinoimidazo [1,2-b][1,2,4]triazin-6-yl)phenyl)azetidine-1-carboxamide]		100 to 416 µM (≈ 39.7 to 165 µg/mL)	5.01 to 631 nM	
CN1CCN(Cc2ccc(-c3cnc4nc(-c5cc(NC(=O)N6CCCC6)ccc5F)cn4n3)cc2)CC1 [Example 59, N-(4-fluoro-3-(2-(4-((4-methylpiperazin-1-yl)methyl)phenyl)imidazo [1,2-b][1,2,4]triazin-6-yl)phenyl)pyrrolidine-1-carboxamide]				3980 to 15800 nM
CC(=O)c1cnc2nc(-c3cc(NC(=O)N4CCCC4)ccc3F)cn2n1 [Example 46, N-(3-(2-acetylimidazo [1,2-b][1,2,4]triazin-6-yl)-4-fluorophenyl) pyrrolidine-1-carboxamide]		100 to 416 µM (≈ 36.8 to 153 µg/mL)	5.01 to 631 nM	
O=C(Nc1ccc(F)c(-c2cn3nc(CCCO)cnc3n2)c1)N1CCCC1 [Example 25, N-(4-fluoro-3-(2-(3-hydroxypropyl)imidazo [1,2-b][1,2,4]triazin-6-yl)phenyl)pyrrolidine-1-carboxamide]		100 to 416 µM (≈ 38.4 to 160 µg/mL)	5.01 to 631 nM	
CC(C)c1cnc2nc(-c3cc(NC(=O)N4CCCC4)ccc3F)cn2n1 [Example 13, N-(4-fluoro-3-(2-isopropylimidazo [1,2-b][1,2,4]triazin-6-yl)phenyl)pyrrolidine-1-carboxamide]		100 to 416 µM (≈ 36.8 to 153 µg/mL)	5.01 to 631 nM	
